Laboratory results from paper PMC11509018, “Evaluation of the Role of Tanshinone I in an In Vitro System of Charcot-Marie-Tooth Disease Type 2N” (International Journal of Molecular Sciences, 2024).
Structures can show the parent of a compound that is named as a salt.

How the values were obtained:
AlaRS^R329H [1] = molecular target: T1, AlaRS^R329H (Homo sapiens, UniProt P49588, R329H); test: ATP consumption assay (enzyme inhibition); type: biochemical; conditions: 1 μM AlaRS^R329H at 20 μM compounds; vs DMSO control
T1 construct: made in house; host or cells: E. coli BL21 (DE3), pET-21a
T1 sequence (P49588 1-968 R329H): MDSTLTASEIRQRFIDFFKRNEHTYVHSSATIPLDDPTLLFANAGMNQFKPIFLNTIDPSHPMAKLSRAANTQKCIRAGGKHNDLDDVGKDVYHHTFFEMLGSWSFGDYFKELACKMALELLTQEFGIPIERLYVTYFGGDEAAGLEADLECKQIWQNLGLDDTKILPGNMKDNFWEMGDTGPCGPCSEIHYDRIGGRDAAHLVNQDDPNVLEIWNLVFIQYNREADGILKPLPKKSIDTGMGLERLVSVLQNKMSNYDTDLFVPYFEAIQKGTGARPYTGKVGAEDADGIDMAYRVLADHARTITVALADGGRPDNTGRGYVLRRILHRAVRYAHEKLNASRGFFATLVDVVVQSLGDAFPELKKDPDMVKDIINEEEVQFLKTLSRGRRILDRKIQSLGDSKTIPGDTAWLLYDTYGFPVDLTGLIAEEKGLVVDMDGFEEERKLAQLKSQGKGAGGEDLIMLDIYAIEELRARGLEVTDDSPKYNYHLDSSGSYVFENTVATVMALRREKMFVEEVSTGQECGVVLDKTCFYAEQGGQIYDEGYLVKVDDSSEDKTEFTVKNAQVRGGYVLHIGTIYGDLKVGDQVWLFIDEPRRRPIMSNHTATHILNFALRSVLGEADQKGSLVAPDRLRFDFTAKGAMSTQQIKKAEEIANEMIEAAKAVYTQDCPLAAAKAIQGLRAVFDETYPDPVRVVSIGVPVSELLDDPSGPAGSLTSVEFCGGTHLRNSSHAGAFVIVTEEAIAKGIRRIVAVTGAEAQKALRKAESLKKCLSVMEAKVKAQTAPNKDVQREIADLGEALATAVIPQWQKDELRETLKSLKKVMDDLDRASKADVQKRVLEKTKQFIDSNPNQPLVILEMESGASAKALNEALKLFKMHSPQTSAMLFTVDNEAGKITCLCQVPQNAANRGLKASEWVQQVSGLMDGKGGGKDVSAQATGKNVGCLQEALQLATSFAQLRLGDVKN
Protocol: We further investigated the effects of the four small molecules on the enzymatic activity of the AlaRS^R329H protein using an ATP consumption assay. All four compounds affected enzymatic activity to varying degrees. […] The ATP consumption assay was used to evaluate the enzymatic inhibitory activity of the compounds. A 30 μL reaction mixture, containing 1 μM AlaRS mutants, 25 μM ATP, 50 μM L-alanine, 30 mM HEPES (pH 7.5), 150 mM NaCl, 30 mM KCl, 40 mM MgCl2, 0.1% BSA, and varying concentrations of Tanshinone I, was incubated at room temperature for 15 min. After incubation, 10 μL of the mixture was transferred to a 384-well microplate, and AlaRS mutant activity was measured by adding 10 μL of the ATP Assay Kit (#S0026, Beyotime, Shanghai, China). Luminescence was recorded using a Synergy HTX multimode microplate reader (BioTek Inc., Winooski, VT, USA). The inhibitory rate was calculated from three independent assays to ensure the accurate assessment of Tanshinone I’s inhibitory activity. The experiment was repeated three times.

AlaRS^R329H [2] = molecular target: T1, AlaRS^R329H; test: Thermal shift assay (TSA); type: binding; conditions: positive hit = shift of more than 2.5 °C
Description: In this assay, with increasing temperatures, the protein undergoes thermal unfolding, exposing its hydrophobic core. Subsequently, a fluorescent dye binds to these hydrophobic regions, becoming unquenched. Fluorescence is closely monitored, and the midpoint of the protein unfolding transition is designated as the Tm. Ligand binding frequently influences protein thermal stability during denaturation. Thus, the ligand binding affinity of any potential inhibitor can be gauged by evaluating the shift in the Tm. In this experiment, we screened a library of 2000 small molecules (Table S1) and classified as positive hits those that caused a shift in the Tm of the mutant protein of more than 2.5 °C. From the TSA, we identified four small molecules that met this criterion (Figure 2A, Table 1). Specifically, Atazanavir sulfate caused a shift of 4.0 °C, Tanshinone I a shift of 3.1 °C, Hederacolchiside A1 a shift of 4.3 °C, and Hexylresorcinol a shift of 5.5 °C (Figure 2B). To assess the impact of small molecules on the thermal stability of mutant proteins, thermal shift assays were performed using a […] (Applied Biosystems, Waltham, MA, USA) with the Protein Thermal Shift™ Kit dye (Thermo Fisher Scientific, Waltham, MA, USA). Each well of a 96-well Optical Reaction Plate (Applied Biosystems) contained 14 μL of thermal shift buffer, 2 μL of diluted thermal shift dye (8×), 2 μL of a 1 mM small molecule solution, and 2 μL of 1 mg/mL protein. Plates were incubated at 4 °C for 1 h before being heated from 25 °C to 95 °C at 1 °C/min. The fluorescence signal of SYPRO orange (excitation/emission: 490/530 nm) was recorded at 30 s intervals to monitor protein denaturation. The melting temperature (Tm), defined as the midpoint of the unfolding transition, was determined from the fluorescence–temperature curve. ΔTm was calculated as the difference in Tm between AlaRS^R329H treated with compounds and the control. Experiments were conducted in triplicate for accuracy. The experiment was repeated three times.

AlaRS^R329H [3] = molecular target: T1, AlaRS^R329H; test: Biolayer interferometry (BLI); type: binding; conditions: immobilized AlaRS^R329H, 40, 20, 10, 5, 2.5 μM, mean ± SD, triplicate
Description: To quantitatively analyze the binding affinity between the small molecules and the CMT mutant proteins, we performed BLI analysis on the selected candidates. BLI offers direct measurements of drug–protein binding kinetics, including key parameters such as the equilibrium dissociation constant (KD), association rate (Kon), and dissociation rate (Koff). This analysis provided key insights into the binding affinities of the four small molecules with the mutant protein AlaRS^R329H. […] To further quantify the binding of small molecules to mutant proteins, binding experiments with AlaRS^R329H proteins and small molecules were conducted using an Octet R8 system (ForteBio, Fremont, CA, USA). Purified His-tagged AlaRS^R329H proteins (500 μg/mL) were captured on Ni-NTA biosensors (ForteBio, Fremont, CA, USA), achieving a saturation response of 4–5 nm after 300 s. The biosensors were then transferred to Octet buffer (PBS with 0.01% Tween 20) for 180 s to remove loosely bound, nonspecific proteins and to establish a stable baseline. Following this, the sensors were immersed in diluted Tanshinone I (2.5–100 μM in assay buffer) for 120 s to record the association signal, and then transferred back into Octet buffer to monitor the dissociation signal for 120 s. Reference wells containing buffer instead of Tanshinone I were included to correct for baseline shifts. Additionally, a parallel set of Ni-NTA sensors in buffer served as negative reference controls to account for nonspecific binding of the compounds to the biosensor surface. The data were processed using a double reference subtraction protocol to eliminate nonspecific signals, background noise, and signal drifts caused by biosensor variability. All assays were performed in 96-well black plates with a total volume of 200 μL per well at 30 °C. Data analysis, including correction and curve fitting, was carried out using Octet® Analysis Studio 12.2.2.26. The experiment was repeated three times.

AlaRS^R329H [4] = molecular target: T1, AlaRS^R329H; test: Proteolytic digestion assay (trypsin, SDS-PAGE); conditions: 3 h
Protocol: To delve deeper into the impact of selected small molecules on the structural conformation of AlaRS^R329H proteins, a series of proteolysis experiments were conducted. The small molecules were incubated with AlaRS^R329H proteins at room temperature for three hours, followed by SDS-PAGE analysis to evaluate their effects on the distribution of the digestion fragments. […] The AlaRS^R329H proteins (in the presence and absence of Atazanavir sulfate, Tanshinone I, Hederacolchiside A1, and Hexylresorcinol) were incubated with trypsin at different concentrations for 3 h before the reactions were quenched, and the products were separated by SDS-PAGE.

## COC(=O)N[C@H](C(=O)N[C@@H](Cc1ccccc1)[C@@H](O)CN(Cc1ccc(-c2ccccn2)cc1)NC(=O)[C@@H](NC(=O)OC)C(C)(C)C)C(C)(C)C [Atazanavir sulfate, reference compound]
AlaRS^R329H [1]
  Relative Activity (relative enzyme activity of the first step): 96.8%
AlaRS^R329H [2]
  ΔTm (shift between the Tm values of AlaRS^R329H with and without compounds): 4.0 °C
AlaRS^R329H [3]
  Kd: 28.6 ± 9.9 µM
AlaRS^R329H [4]
  Effect on distribution of digestion fragments / conformation: minimal effects on the distribution of digestion fragments

## C[C@@H]1O[C@@H](O[C@H]2[C@H](O[C@H]3CC[C@]4(C)[C@H]5CC=C6[C@@H]7CC(C)(C)CC[C@]7(C(=O)O)CC[C@@]6(C)[C@]5(C)CC[C@H]4C3(C)C)OC[C@H](O[C@@H]3O[C@H](CO)[C@@H](O)[C@H](O)[C@H]3O)[C@@H]2O)[C@H](O)[C@H](O)[C@H]1O [Hederacolchiside A1]
AlaRS^R329H [1]
  Relative Activity (relative enzyme activity of the first step): 69.6%
AlaRS^R329H [2]
  ΔTm (shift between the Tm values of AlaRS^R329H with and without compounds): 4.3 °C
AlaRS^R329H [3]
  Kd: 10.1 ± 0.5 µM
AlaRS^R329H [4]
  Effect on distribution of digestion fragments / conformation: slight conformational change

## CCCCCCc1ccc(O)cc1O [Hexylresorcinol, reference compound]
AlaRS^R329H [1]
  Relative Activity (relative enzyme activity of the first step): 79.8%
AlaRS^R329H [3]
  Kd: 26.3 ± 9.9 µM
AlaRS^R329H [4]
  Effect on distribution of digestion fragments / conformation: minimal effects on the distribution of digestion fragments
